According to paper doi:10.1101/2025.03.14.643404, “A Bivalent Molecular Glue Linking Lysine Acetyltransferases to Oncogene-induced Cell Death” (bioRxiv, 2025):

Target: T1, BCL6 (Homo sapiens, UniProt P41182+Q09472+Q92793)
T1 construct: endogenous in cells; host or cells: SUDHL5
Assay: Acetyl-lysine IP and western blot for BCL6 in SUDHL5
Format: cell-based
Details: SUDHL5, 1 hour
Description: Cells were plated at 1M/mL and treated with compound or DMSO at indicated timepoints and doses. Cells were harvested on ice, counted, normalized by count, and washed 1X in PBS containing compound or DMSO. For only BCL6 immunoprecipitation, compound or DMSO was maintained in nuclear preparation buffers at identical concentration to cell treatment throughout. Nuclei were prepared by incubation in Buffer A (25 mM HEPES pH 7.5, 25 mM KCl, 0.05 mM EDTA, 1mM MgCl2, 10% glycerol, 0.1% NP-40) supplemented with protease inhibitors (1 mM PMSF, ~[…] pepstatin, aprotinin, and leupeptin) at 4 °C for 7 mins. Nuclear preparation was confirmed by Trypan blue staining and nuclei were pelleted by centrifugation for 5 min at 500g at 4 °C. Pelleted nuclei were resuspended in IP Buffer (25 mM HEPES pH 7.5, 150mM KCl, 0.05 mM EDTA, 1 mM MgCl2, 10% glycerol, 0.1% NP-40) supplemented with protease inhibitors and 1 μL/250 units benzonase (Sigma E1014). Chromatin was removed by incubation with rotation for 30 min and nuclei sheared using a 27-gauge needle exactly five times. […]
Cells were plated at 1M/mL and treated with drug at indicated timepoints and doses. […] After 10 min centrifugation at 14,000g and 4 °C, the supernatant was collected and protein concentration was measured by Bradford. […] ImageStudio (Licor) was used for blot imaging and quantification.

T1 sequence (Q09472 2-2414 limits assumed, other chains not shown): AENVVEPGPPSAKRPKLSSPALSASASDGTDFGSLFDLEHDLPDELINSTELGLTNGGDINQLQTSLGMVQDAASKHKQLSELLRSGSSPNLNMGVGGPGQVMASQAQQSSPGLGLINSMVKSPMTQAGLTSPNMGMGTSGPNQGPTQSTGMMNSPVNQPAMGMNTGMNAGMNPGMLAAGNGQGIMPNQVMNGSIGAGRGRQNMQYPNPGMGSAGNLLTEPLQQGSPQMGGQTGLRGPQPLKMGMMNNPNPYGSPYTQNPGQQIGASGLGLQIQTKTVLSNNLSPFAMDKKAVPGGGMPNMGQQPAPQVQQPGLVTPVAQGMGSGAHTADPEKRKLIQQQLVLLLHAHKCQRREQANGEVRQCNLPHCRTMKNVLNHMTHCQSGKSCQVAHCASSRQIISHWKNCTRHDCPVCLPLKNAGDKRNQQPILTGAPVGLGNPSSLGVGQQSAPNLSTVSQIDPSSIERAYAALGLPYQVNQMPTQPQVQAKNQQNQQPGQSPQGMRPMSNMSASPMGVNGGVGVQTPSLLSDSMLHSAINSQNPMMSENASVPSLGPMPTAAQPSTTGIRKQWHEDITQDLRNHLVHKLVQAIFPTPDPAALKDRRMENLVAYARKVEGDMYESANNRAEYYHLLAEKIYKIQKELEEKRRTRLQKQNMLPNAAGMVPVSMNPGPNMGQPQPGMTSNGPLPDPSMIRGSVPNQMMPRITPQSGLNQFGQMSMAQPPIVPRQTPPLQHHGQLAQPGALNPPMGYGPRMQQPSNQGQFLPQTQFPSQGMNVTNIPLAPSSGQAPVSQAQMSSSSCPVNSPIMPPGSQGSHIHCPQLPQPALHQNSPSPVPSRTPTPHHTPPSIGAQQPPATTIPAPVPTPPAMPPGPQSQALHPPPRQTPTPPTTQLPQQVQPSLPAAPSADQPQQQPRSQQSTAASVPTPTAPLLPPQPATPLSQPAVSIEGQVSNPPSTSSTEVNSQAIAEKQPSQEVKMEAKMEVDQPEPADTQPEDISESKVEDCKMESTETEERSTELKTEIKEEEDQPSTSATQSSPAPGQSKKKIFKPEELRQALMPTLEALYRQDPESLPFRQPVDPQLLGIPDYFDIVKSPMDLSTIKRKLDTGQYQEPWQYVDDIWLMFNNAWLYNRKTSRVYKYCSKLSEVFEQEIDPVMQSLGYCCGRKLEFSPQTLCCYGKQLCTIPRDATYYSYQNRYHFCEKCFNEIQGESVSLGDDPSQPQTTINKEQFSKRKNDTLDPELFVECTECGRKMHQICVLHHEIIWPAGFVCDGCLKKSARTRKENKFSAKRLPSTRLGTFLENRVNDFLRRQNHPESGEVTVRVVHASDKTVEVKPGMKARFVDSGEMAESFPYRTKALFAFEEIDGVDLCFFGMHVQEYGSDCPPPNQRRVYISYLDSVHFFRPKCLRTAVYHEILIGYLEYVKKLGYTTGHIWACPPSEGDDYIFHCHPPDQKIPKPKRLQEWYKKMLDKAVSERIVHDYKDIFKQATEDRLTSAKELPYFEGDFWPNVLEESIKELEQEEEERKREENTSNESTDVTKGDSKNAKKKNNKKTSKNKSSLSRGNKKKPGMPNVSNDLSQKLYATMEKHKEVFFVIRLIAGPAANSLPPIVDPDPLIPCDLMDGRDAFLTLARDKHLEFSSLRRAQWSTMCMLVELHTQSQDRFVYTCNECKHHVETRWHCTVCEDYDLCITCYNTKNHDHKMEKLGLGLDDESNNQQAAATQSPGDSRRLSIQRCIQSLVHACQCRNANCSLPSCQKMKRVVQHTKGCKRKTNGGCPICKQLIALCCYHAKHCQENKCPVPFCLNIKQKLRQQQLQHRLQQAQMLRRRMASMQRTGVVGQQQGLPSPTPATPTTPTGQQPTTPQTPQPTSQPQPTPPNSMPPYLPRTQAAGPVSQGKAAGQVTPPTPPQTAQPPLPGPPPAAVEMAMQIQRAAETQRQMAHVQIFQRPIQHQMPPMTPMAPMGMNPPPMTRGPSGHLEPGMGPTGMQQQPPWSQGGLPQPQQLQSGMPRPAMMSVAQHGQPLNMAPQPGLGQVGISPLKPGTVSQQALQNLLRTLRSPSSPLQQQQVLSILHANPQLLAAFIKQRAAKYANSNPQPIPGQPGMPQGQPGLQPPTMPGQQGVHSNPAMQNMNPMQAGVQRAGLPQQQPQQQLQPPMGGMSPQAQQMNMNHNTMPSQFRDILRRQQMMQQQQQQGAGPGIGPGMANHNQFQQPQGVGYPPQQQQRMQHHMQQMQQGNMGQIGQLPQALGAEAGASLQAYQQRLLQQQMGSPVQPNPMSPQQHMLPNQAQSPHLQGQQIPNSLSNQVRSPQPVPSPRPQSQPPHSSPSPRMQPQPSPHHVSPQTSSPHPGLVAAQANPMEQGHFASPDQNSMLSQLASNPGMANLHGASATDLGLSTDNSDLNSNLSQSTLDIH
T1 sequence (Q92793 2-2442 limits assumed, other chains not shown): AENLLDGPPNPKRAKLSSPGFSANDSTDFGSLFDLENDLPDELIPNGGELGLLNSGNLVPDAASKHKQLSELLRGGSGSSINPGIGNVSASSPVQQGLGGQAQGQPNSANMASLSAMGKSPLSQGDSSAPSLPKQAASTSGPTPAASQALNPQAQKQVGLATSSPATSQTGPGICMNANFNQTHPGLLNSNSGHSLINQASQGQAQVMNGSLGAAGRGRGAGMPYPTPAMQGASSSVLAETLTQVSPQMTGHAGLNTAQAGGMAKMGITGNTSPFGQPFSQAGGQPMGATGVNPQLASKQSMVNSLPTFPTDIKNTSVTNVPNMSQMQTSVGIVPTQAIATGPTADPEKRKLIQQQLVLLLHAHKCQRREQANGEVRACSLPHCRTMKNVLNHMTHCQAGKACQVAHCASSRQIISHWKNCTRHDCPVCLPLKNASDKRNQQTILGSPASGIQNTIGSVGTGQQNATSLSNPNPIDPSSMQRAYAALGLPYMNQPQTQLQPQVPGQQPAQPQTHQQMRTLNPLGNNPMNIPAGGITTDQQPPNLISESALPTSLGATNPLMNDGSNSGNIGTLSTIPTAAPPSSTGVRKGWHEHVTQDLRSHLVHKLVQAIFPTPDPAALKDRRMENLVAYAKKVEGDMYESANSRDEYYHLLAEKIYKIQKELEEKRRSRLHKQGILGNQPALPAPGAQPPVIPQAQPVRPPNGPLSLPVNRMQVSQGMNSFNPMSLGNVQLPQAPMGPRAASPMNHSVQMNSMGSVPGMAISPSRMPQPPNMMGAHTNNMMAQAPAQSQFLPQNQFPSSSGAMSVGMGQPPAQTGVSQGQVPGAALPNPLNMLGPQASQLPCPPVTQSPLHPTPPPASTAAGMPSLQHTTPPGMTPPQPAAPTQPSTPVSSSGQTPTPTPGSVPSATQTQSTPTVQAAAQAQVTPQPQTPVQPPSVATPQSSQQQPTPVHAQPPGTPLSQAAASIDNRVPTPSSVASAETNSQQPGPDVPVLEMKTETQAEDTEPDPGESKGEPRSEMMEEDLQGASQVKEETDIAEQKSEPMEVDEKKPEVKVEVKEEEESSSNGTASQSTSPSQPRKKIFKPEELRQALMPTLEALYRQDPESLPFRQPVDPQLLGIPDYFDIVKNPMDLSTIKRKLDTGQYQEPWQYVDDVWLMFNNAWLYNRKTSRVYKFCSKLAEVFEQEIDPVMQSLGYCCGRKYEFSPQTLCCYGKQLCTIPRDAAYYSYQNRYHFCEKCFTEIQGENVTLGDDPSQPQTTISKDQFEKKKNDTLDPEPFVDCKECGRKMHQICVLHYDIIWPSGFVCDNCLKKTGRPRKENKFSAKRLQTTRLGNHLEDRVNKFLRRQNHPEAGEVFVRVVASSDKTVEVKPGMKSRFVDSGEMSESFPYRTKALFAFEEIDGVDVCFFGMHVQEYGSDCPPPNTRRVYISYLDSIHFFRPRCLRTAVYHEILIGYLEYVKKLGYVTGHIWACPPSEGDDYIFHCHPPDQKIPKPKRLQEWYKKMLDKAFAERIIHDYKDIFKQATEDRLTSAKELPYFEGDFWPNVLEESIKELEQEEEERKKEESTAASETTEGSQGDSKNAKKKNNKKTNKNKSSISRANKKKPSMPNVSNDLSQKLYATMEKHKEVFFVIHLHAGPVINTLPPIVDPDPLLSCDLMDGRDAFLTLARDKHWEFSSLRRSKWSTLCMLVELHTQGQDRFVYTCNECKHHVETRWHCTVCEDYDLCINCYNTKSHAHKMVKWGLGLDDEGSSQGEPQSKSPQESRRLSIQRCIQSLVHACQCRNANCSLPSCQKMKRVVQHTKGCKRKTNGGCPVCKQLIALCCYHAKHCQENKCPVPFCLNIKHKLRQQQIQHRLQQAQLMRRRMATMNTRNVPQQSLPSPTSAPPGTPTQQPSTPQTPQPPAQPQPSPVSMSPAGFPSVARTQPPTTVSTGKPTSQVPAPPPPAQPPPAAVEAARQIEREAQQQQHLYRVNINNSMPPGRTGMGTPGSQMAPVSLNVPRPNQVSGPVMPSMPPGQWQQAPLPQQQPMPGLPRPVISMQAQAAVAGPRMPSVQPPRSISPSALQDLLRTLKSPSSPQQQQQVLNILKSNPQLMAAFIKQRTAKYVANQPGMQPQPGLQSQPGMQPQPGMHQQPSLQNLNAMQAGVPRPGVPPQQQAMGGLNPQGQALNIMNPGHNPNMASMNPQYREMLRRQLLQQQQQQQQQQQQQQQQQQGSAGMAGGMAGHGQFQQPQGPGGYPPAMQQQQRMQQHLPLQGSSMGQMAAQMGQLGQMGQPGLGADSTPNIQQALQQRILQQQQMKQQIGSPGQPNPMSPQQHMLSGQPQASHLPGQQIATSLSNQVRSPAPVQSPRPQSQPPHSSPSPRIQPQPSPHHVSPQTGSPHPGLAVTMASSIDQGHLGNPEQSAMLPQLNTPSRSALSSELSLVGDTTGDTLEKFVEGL

concentration at which increase of acetylated BCL6 begins: 1 nM
Compound: CNC(=O)COc1cc2cc(Nc3nc(N4CCC(C(=O)N5CCN(CCC(=O)N6CCC(n7nc(N8CCCc9cc(-c%10cnn(C)c%10)c(C(F)F)cc98)c8c7CCN(C(=O)NC)C8)CC6)CC5)CC4)ncc3Cl)cc(OC)c2n(C)c1=O [TCIP3]
